Measured values published in the supplement of paper PMC7840683.
Structures can show the parent of a compound that is named as a salt. ± gives the standard deviation of the averaged measurements.

System: HepaRG
Assay: LDH release cytotoxicity, % of total lysis control; higher = more cytotoxic
Settings: 48 h
Procedure, shortened: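 Single-lot HepaRG cells in collagen I-coated 96-well plates were treated for 48 h in serum-free induction medium containing 0.5% DMSO with test chemicals in eight-point half-log series up to 100 µM. For total lysis, wells received 0.1% Triton X. LDH in 50 µL spent medium was assayed by resorufin fluorescence with CytoTox-ONE. Percent cytotoxicity was normalized to the on-plate vehicle and total lysis controls, with duplicates averaged.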

## Cc1cccc(N)c1N [2,3-Diaminotoluene]
0.03162 µM
  LDH release cytotoxicity: -0.0536 ± 0.59%
0.1 µM
  LDH release cytotoxicity: -0.722 ± 0.31%
0.3162278 µM
  LDH release cytotoxicity: 0.216 ± 0.21%
1 µM
  LDH release cytotoxicity: -0.468 ± 0.4%
3.16228 µM
  LDH release cytotoxicity: -0.351 ± 0.98%
10 µM
  LDH release cytotoxicity: 0.016 ± 0.52%
31.6228 µM
  LDH release cytotoxicity: -0.572 ± 0.99%
100 µM
  LDH release cytotoxicity: 0.619 ± 0.97%

## O=C(O)Cc1cc(I)c(Oc2cc(I)c(O)c(I)c2)c(I)c1 [Tetrac]
0.0211873 µM
  LDH release cytotoxicity: 0.0963 ± 1.1%
0.067 µM
  LDH release cytotoxicity: -0.0291 ± 0.51%
0.211873 µM
  LDH release cytotoxicity: 0.0359 ± 0.7%
0.67 µM
  LDH release cytotoxicity: 0.258 ± 1.1%
2.11873 µM
  LDH release cytotoxicity: 1.04 ± 0.39%
6.7 µM
  LDH release cytotoxicity: 0.279 ± 0.69%
21.1873 µM
  LDH release cytotoxicity: -0.194 ± 0.92%
67 µM
  LDH release cytotoxicity: 34 ± 0.74%

## O=C(O)c1ccc2c(c1)nc(C(=O)NC1CCN(C3CC3)CC1)n2Cc1cc(-c2ccc(Cl)s2)on1 [AVE3247]
0.0075895 µM
  LDH release cytotoxicity: -0.875 ± 0.16%
0.024 µM
  LDH release cytotoxicity: -2.04 ± 0.26%
0.0758947 µM
  LDH release cytotoxicity: -2.37 ± 0.35%
0.24 µM
  LDH release cytotoxicity: -2.63 ± 0.092%
0.758947 µM
  LDH release cytotoxicity: -2.23 ± 0.33%
2.4 µM
  LDH release cytotoxicity: -1.94 ± 0.17%
7.58947 µM
  LDH release cytotoxicity: -1.68 ± 0.43%
24 µM
  LDH release cytotoxicity: -0.941 ± 0.19%

## O=C(Nc1ccccc1)c1ccccc1I [Benodanil]
0.03162 µM
  LDH release cytotoxicity: -1.25 ± 0.85%
0.1 µM
  LDH release cytotoxicity: -1.19 ± 1.3%
0.3162278 µM
  LDH release cytotoxicity: -1.59 ± 0.61%
1 µM
  LDH release cytotoxicity: -2.02 ± 0.61%
3.16228 µM
  LDH release cytotoxicity: -0.274 ± 0.0083%
10 µM
  LDH release cytotoxicity: 1.86 ± 0.57%
31.6228 µM
  LDH release cytotoxicity: 5.86 ± 1.2%
100 µM
  LDH release cytotoxicity: 12.4 ± 0.34%

## CC(C)(OOC(C)(C)c1ccccc1)c1ccccc1 [Dicumyl peroxide]
0.03162 µM
  LDH release cytotoxicity: -3.28 ± 0.56%
0.1 µM
  LDH release cytotoxicity: -3.3 ± 0.54%
0.3162278 µM
  LDH release cytotoxicity: -1.36 ± 0.58%
1 µM
  LDH release cytotoxicity: -1.54 ± 1%
3.16228 µM
  LDH release cytotoxicity: -0.973 ± 1.9%
10 µM
  LDH release cytotoxicity: -1.43 ± 0.79%
31.6228 µM
  LDH release cytotoxicity: -0.756 ± 0.26%
100 µM
  LDH release cytotoxicity: -0.201 ± 1.3%

## c1cc[n+]2c(c1)-c1cccc[n+]1CC2 [Diquat dibromide monohydrate]
0.03162 µM
  LDH release cytotoxicity: -1.01 ± 0.048%
0.1 µM
  LDH release cytotoxicity: 0.359 ± 1.1%
0.3162278 µM
  LDH release cytotoxicity: 0.818 ± 0.33%
1 µM
  LDH release cytotoxicity: 0.472 ± 0.19%
3.16228 µM
  LDH release cytotoxicity: 0.215 ± 0.51%
10 µM
  LDH release cytotoxicity: 1.64 ± 0.66%
31.6228 µM
  LDH release cytotoxicity: -0.425 ± 0.39%
100 µM
  LDH release cytotoxicity: 2.13 ± 0.58%

## CC(C)(C)c1cc(O)c(C(C)(C)C)cc1O [2,5-Di-tert-butylbenzene-1,4-diol]
0.03162 µM
  LDH release cytotoxicity: -1.42 ± 0.46%
0.1 µM
  LDH release cytotoxicity: -1.56 ± 0.33%
0.3162278 µM
  LDH release cytotoxicity: -1.72 ± 1.2%
1 µM
  LDH release cytotoxicity: -1.69 ± 0.27%
3.16228 µM
  LDH release cytotoxicity: -1.49 ± 0.41%
10 µM
  LDH release cytotoxicity: -1.94 ± 0.31%
31.6228 µM
  LDH release cytotoxicity: -1.04 ± 0.88%
100 µM
  LDH release cytotoxicity: -1.46 ± 0.39%

## CC1CC(C)C(=O)C(C(O)CC2CC(=O)NC(=O)C2)C1 (configuration not stated) [Cycloheximide]
0.03162 µM
  LDH release cytotoxicity: -0.96 ± 0.28%
0.1 µM
  LDH release cytotoxicity: -0.691 ± 0.23%
0.3162278 µM
  LDH release cytotoxicity: -1.8 ± 0.17%
1 µM
  LDH release cytotoxicity: -1.99 ± 0.4%
3.16228 µM
  LDH release cytotoxicity: -1.19 ± 0.83%
10 µM
  LDH release cytotoxicity: 3.47 ± 0.21%
31.6228 µM
  LDH release cytotoxicity: 24 ± 0.46%
100 µM
  LDH release cytotoxicity: 61.9 ± 1.8%

## CN(C)C(=O)Nc1ccc(Cl)c(Cl)c1 [Diuron]
0.0314647 µM
  LDH release cytotoxicity: -0.32 ± 1.2%
0.0995 µM
  LDH release cytotoxicity: -1.23 ± 1.5%
0.3146466 µM
  LDH release cytotoxicity: -1.57 ± 0.64%
0.995 µM
  LDH release cytotoxicity: -0.727 ± 0.72%
3.14647 µM
  LDH release cytotoxicity: -1.47 ± 0.9%
9.95 µM
  LDH release cytotoxicity: -1.77 ± 0.071%
31.4647 µM
  LDH release cytotoxicity: -0.974 ± 0.13%
99.5 µM
  LDH release cytotoxicity: 19 ± 4.1%

## OC(CCl)CCl [1,3-Dichloro-2-propanol]
0.03162 µM
  LDH release cytotoxicity: -0.194 ± 0.51%
0.1 µM
  LDH release cytotoxicity: -0.771 ± 0.2%
0.3162278 µM
  LDH release cytotoxicity: -1.03 ± 0.57%
1 µM
  LDH release cytotoxicity: -0.871 ± 0.15%
3.16228 µM
  LDH release cytotoxicity: -0.223 ± 0.23%
10 µM
  LDH release cytotoxicity: -0.32 ± 0.6%
31.6228 µM
  LDH release cytotoxicity: 0.161 ± 0.38%
100 µM
  LDH release cytotoxicity: -0.702 ± 0.99%

## CN(C)C1C(=O)C(C(N)=O)C(=O)C2(O)C(=O)C3C(=O)c4c(O)cccc4C(C)(O)C3C(O)C12 (configuration not stated) [Oxytetracycline hydrochloride]
0.03162 µM
  LDH release cytotoxicity: -0.636 ± 0.43%
0.1 µM
  LDH release cytotoxicity: -0.707 ± 0.15%
0.3162278 µM
  LDH release cytotoxicity: -1.81 ± 0.59%
1 µM
  LDH release cytotoxicity: -1.93 ± 0.75%
3.16228 µM
  LDH release cytotoxicity: -1.93 ± 0.7%
10 µM
  LDH release cytotoxicity: -1.21 ± 0.36%
31.6228 µM
  LDH release cytotoxicity: -1.75 ± 1.1%
100 µM
  LDH release cytotoxicity: -1.47 ± 0.43%

## CCCCC(O)(Cn1cncn1)c1ccc(Cl)cc1Cl (configuration not stated) [Hexaconazole]
0.03162 µM
  LDH release cytotoxicity: -0.998 ± 0.92%
0.1 µM
  LDH release cytotoxicity: -0.668 ± 1.4%
0.3162278 µM
  LDH release cytotoxicity: 0.00223 ± 0.062%
1 µM
  LDH release cytotoxicity: -0.913 ± 0.57%
3.16228 µM
  LDH release cytotoxicity: -0.0659 ± 0.044%
10 µM
  LDH release cytotoxicity: 0.28 ± 0.96%
31.6228 µM
  LDH release cytotoxicity: -0.401 ± 0.24%
100 µM
  LDH release cytotoxicity: 10.1 ± 1.3%

## Cc1ccc(N=C=O)cc1N=C=O [Toluene 2,4-diisocyanate]
0.03162 µM
  LDH release cytotoxicity: -1.18 ± 0.59%
0.1 µM
  LDH release cytotoxicity: -1.26 ± 0.15%
0.3162278 µM
  LDH release cytotoxicity: -1.96 ± 0.45%
1 µM
  LDH release cytotoxicity: -1.55 ± 0.2%
3.16228 µM
  LDH release cytotoxicity: -1.52 ± 0.076%
10 µM
  LDH release cytotoxicity: -0.759 ± 0.27%
31.6228 µM
  LDH release cytotoxicity: 4.408 ± 0.042%
100 µM
  LDH release cytotoxicity: 11.5 ± 1.5%

## CCCCOC(=O)CCCCCCCCC(=O)OCCCC [Dibutyl decanedioate]
0.03162 µM
  LDH release cytotoxicity: -1.01 ± 0.4%
0.1 µM
  LDH release cytotoxicity: -1.61 ± 0.65%
0.3162278 µM
  LDH release cytotoxicity: -1.81 ± 0.16%
1 µM
  LDH release cytotoxicity: -2.3 ± 0.41%
3.16228 µM
  LDH release cytotoxicity: -2.91 ± 0.79%
10 µM
  LDH release cytotoxicity: -1.92 ± 0.027%
31.6228 µM
  LDH release cytotoxicity: -1.43 ± 1%
100 µM
  LDH release cytotoxicity: 0.112 ± 0.92%

## CCC(=O)Nc1ccc(Cl)c(Cl)c1 [Propanil]
0.03162 µM
  LDH release cytotoxicity: -0.963 ± 0.057%
0.1 µM
  LDH release cytotoxicity: -0.318 ± 1.1%
0.3162278 µM
  LDH release cytotoxicity: -0.815 ± 0.19%
1 µM
  LDH release cytotoxicity: -1.73 ± 0.56%
3.16228 µM
  LDH release cytotoxicity: -0.844 ± 0.53%
10 µM
  LDH release cytotoxicity: 0.163 ± 0.67%
31.6228 µM
  LDH release cytotoxicity: 0.666 ± 0.14%
100 µM
  LDH release cytotoxicity: 4.33 ± 0.28%

## CCCCCCCCOc1ccc(C(=O)c2ccccc2)c(O)c1 [Octabenzone]
0.03162 µM
  LDH release cytotoxicity: -0.784 ± 0.38%
0.1 µM
  LDH release cytotoxicity: -1.09 ± 0.34%
0.3162278 µM
  LDH release cytotoxicity: -0.164 ± 0.29%
1 µM
  LDH release cytotoxicity: 0.7228 ± 0.0064%
3.16228 µM
  LDH release cytotoxicity: 0.706 ± 0.87%
10 µM
  LDH release cytotoxicity: 0.678 ± 2.1%
31.6228 µM
  LDH release cytotoxicity: 1.22 ± 0.62%
100 µM
  LDH release cytotoxicity: 1.8 ± 0.62%

## CN(C)C(=O)Nc1cccc(C(F)(F)F)c1 [Fluometuron]
0.03162 µM
  LDH release cytotoxicity: -0.415 ± 0.25%
0.1 µM
  LDH release cytotoxicity: -0.308 ± 0.37%
0.3162278 µM
  LDH release cytotoxicity: -0.631 ± 0.97%
1 µM
  LDH release cytotoxicity: -0.564 ± 1.4%
3.16228 µM
  LDH release cytotoxicity: -0.69 ± 0.18%
10 µM
  LDH release cytotoxicity: 0.366 ± 0.1%
31.6228 µM
  LDH release cytotoxicity: -0.569 ± 0.084%
100 µM
  LDH release cytotoxicity: 0.377 ± 0.36%

## CNC(=O)Oc1cccc2c1OC(C)(C)O2 [Bendiocarb]
0.031623 µM
  LDH release cytotoxicity: -1.26 ± 1.2%
0.1 µM
  LDH release cytotoxicity: -1.64 ± 2.2%
0.316228 µM
  LDH release cytotoxicity: -0.794 ± 0.9%
1 µM
  LDH release cytotoxicity: -1.67 ± 1.8%
3.16228 µM
  LDH release cytotoxicity: -1.78 ± 0.89%
10 µM
  LDH release cytotoxicity: -2.76 ± 2.2%
31.6228 µM
  LDH release cytotoxicity: -2.289 ± 0.017%
100 µM
  LDH release cytotoxicity: -2.6 ± 0.88%

## Oc1ccc2ccccc2c1N=Nc1ccccc1 [C.I. Solvent Yellow 14]
0.031623 µM
  LDH release cytotoxicity: -0.466 ± 2.1%
0.1 µM
  LDH release cytotoxicity: -3.7 ± 0.61%
0.316228 µM
  LDH release cytotoxicity: -3.44 ± 1.2%
1 µM
  LDH release cytotoxicity: -2.66 ± 0.24%
3.16228 µM
  LDH release cytotoxicity: -0.781 ± 0.44%
10 µM
  LDH release cytotoxicity: -0.446 ± 0.2%
31.6228 µM
  LDH release cytotoxicity: -2.17 ± 0.29%
100 µM
  LDH release cytotoxicity: -3.46 ± 0.19%
